Data reported in patent US10030047B2 (Hoffmann-La Roche Inc., priority 2015, dated 2018).
≈ marks a conversion by molar mass, not a printed value.

System: A. baumannii strain ATCC19606
Assay: Minimum inhibitory concentration (MIC) determination, microbroth dilution (CLSI)
Type: cell-based
Details: Acinetobacter baumannii; A. baumannii ATCC19606; CAMHB; read after 20 hours; >=80% growth inhibition; read-out: ATCC19606 MIC
Procedure, shortened: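 After 20 h at 35±2 °C, MIC taken visually and by OD 600 nm as the lowest concentration giving ≥80% growth inhibition. Bacteria (~5×10^5 CFU/ml) were tested per CLSI microbroth dilution against twofold serial compound dilutions in cation-adjusted Mueller Hinton broth.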

Row | MIC [µg/mL] | Compound
1 | 0.5 (≈ 0.582 µM) | CN1C(=O)[C@H](CCCCN)NC(=O)[C@H](CCCN)NCc2cccnc2Sc2c(Cl)cc(-c3ccc(S(C)(=O)=O)cc3)cc2CNC(=O)[C@@H]1Cc1c[nH]c2ccccc12 [Example 172, (11S,14S,17S)-14-(4-Amino-butyl)-11-(3-amino-propyl)-25-chloro-17-(1H-indol-3-ylmethyl)-23-(4-methanesulfonyl-phenyl)-16-methyl-2-thia-4,10,13,16,19-pentaaza-tricyclo[19.4.0.0*3,8*]pentacosa-1(25),3(8),4,6,21,23-hexaene-12,15,18-trione]
2 | 2 (≈ 2.32 µM) | CN1C(=O)[C@H](CCCCN)NC(=O)[C@H](CCCN)NCc2cccnc2Sc2c(Cl)cc(-c3cncc(S(C)(=O)=O)c3)cc2CNC(=O)[C@@H]1Cc1c[nH]c2ccccc12 [Example 173, (11S,14S,17S)-14-(4-Amino-butyl)-11-(3-amino-propyl)-25-chloro-17-(1H-indol-3-ylmethyl)-23-(5-methanesulfonyl-pyridin-3-yl)-16-methyl-2-thia-4,10,13,16,19-pentaaza-tricyclo[19.4.0.0*3,8*]pentacosa-1(25),3(8),4,6,21,23-hexaene-12,15,18-trione]
3 | 16 (≈ 20.3 µM) | CN1C(=O)[C@H](CCCCN)NC(=O)[C@H](CCCN)NCc2cccnc2Sc2c(Cl)cc(N3CCC(N)C3)cc2CNC(=O)[C@@H]1Cc1c[nH]c2ccccc12 (stereo partly drawn) [Example 174, (11S,14S,17S)-14-(4-Amino-butyl)-11-(3-amino-propyl)-23-(3-amino-pyrrolidin-1-yl)-25-chloro-17-(1H-indol-3-ylmethyl)-16-methyl-2-thia-4,10,13,16,19-pentaaza-tricyclo[19.4.0.0*3,8*]pentacosa-1(25),3(8),4,6,21,23-hexaene-12,15,18-trione]
4 | 2 (≈ 2.5 µM) | Cc1n[nH]c(C)c1-c1cc(Cl)c2c(c1)CNC(=O)[C@H](Cc1c[nH]c3ccccc13)N(C)C(=O)[C@H](CCCCN)NC(=O)[C@H](CCCN)NCc1cccnc1S2 [Example 175, (11S,14S,17S)-14-(4-Amino-butyl)-11-(3-amino-propyl)-25-chloro-23-(3,5-dimethyl-1H-pyrazol-4-yl)-17-(1H-indol-3-ylmethyl)-16-methyl-2-thia-4,10,13,16,19-pentaaza-tricyclo[19.4.0.0*3,8*]pentacosa-1(25),3(8),4,6,21,23-hexaene-12,15,18-trione]
5 | 1 (≈ 1.25 µM) | CN1C(=O)[C@H](CCCCN)NC(=O)[C@H](CCCN)NCc2cccnc2Sc2c(Cl)cc(-c3ccnc(F)c3)cc2CNC(=O)[C@@H]1Cc1c[nH]c2ccccc12 [Example 177, (11S,14S,17S)-14-(4-Amino-butyl)-11-(3-amino-propyl)-25-chloro-23-(2-fluoro-pyridin-4-yl)-17-(1H-indol-3-ylmethyl)-16-methyl-2-thia-4,10,13,16,19-pentaaza-tricyclo[19.4.0.0*3,8*]pentacosa-1(25),3(8),4,6,21,23-hexaene-12,15,18-trione]
6 | 32 (≈ 41.9 µM) | Cc1ccc(-c2cc3c(cn2)Sc2ncccc2CN[C@@H](CCCN)C(=O)N[C@@H](CCCCN)C(=O)N(C)[C@@H](Cc2c[nH]c4ccccc24)C(=O)NC3)cn1 [Example 178, (7S,10S,13S)-13-((1H-Indol-3-yl)methyl)-10-(4-aminobutyl)-7-(3-aminopropyl)-12-methyl-18-(6-methylpyridin-3-yl)-6,7,9,10,12,13,15,16-octahydrodipyrido[2,3-b:4′,3′-p][1,5,8,11,14]thiatetraazacycloheptadecine-8,11,14(5H)-trione]
7 | 32 (≈ 45.4 µM) | CN1C(=O)[C@H](CCCCN)NC(=O)[C@H](CCCN)NCc2ccccc2Sc2ncc(Cl)cc2CNC(=O)[C@@H]1Cc1c[nH]c2ccccc12 [Example 179]
8 | 1 (≈ 1.32 µM) | CN1C(=O)[C@H](CCCCN)NC(=O)[C@H](CNC(N)=O)NCc2cccnc2Sc2c(Cl)cc(Cl)cc2CNC(=O)[C@@H]1Cc1c[nH]c2ccccc12 [Example 180, [(11S,14S,17S)-14-(4-Amino-butyl)-23,25-dichloro-17-(1H-indol-3-ylmethyl)-16-methyl-12,15,18-trioxo-2-thia-4,10,13,16,19-pentaaza-tricyclo[19.4.0.0*3,8*]pentacosa-1(25),3(8),4,6,21,23-hexaen-11-ylmethyl]-urea]
9 | 0.25 (≈ 0.314 µM) | Cc1[nH]c2ccccc2c1C[C@H]1C(=O)NCc2cc(-c3ccncc3)cc(Cl)c2Sc2ncccc2CN[C@@H](CCCN)C(=O)N[C@@H](CCCCN)C(=O)N1C [Example 181, (11S,14S,17S)-14-(4-Amino-butyl)-11-(3-amino-propyl)-25-chloro-16-methyl-17-(2-methyl-1H-indol-3-ylmethyl)-23-pyridin-4-yl-2-thia-4,10,13,16,19-pentaaza-tricyclo[19.4.0.0*3,8*]pentacosa-1(25),3(8),4,6,21,23-hexaene-12,15,18-trione]
10 | 0.5 (≈ 0.602 µM) | Cc1[nH]c2ccccc2c1C[C@H]1C(=O)NCc2cc(-c3ccnc(Cl)c3)cc(Cl)c2Sc2ncccc2CN[C@@H](CCCN)C(=O)N[C@@H](CCCCN)C(=O)N1C [Example 182, (11S,14S,17S)-14-(4-Amino-butyl)-11-(3-amino-propyl)-25-chloro-23-(2-chloro-pyridin-4-yl)-16-methyl-17-(2-methyl-1H-indol-3-ylmethyl)-2-thia-4,10,13,16,19-pentaaza-tricyclo[19.4.0.0*3,8*]pentacosa-1(25),3(8),4,6,21,23-hexaene-12,15,18-trione]
11 | 0.25 (≈ 0.307 µM) | Cc1[nH]c2ccccc2c1C[C@H]1C(=O)NCc2cc(-c3ccnc(F)c3)cc(Cl)c2Sc2ncccc2CN[C@@H](CCCN)C(=O)N[C@@H](CCCCN)C(=O)N1C [Example 183, (11S,14S,17S)-14-(4-Amino-butyl)-11-(3-amino-propyl)-25-chloro-23-(2-fluoro-pyridin-4-yl)-16-methyl-17-(2-methyl-1H-indol-3-ylmethyl)-2-thia-4,10,13,16,19-pentaaza-tricyclo[19.4.0.0*3,8*]pentacosa-1(25),3(8),4,6,21,23-hexaene-12,15,18-trione]
12 | 2 (≈ 2.51 µM) | CN1C(=O)[C@H](CCCCN)NC(=O)[C@H](CCC(N)=O)NCc2cccnc2Sc2c(Cl)cc(-c3ccccc3)cc2CNC(=O)[C@@H]1Cc1c[nH]c2ccccc12 [Example 184, 3-[(11S,14S,17S)-14-(4-Amino-butyl)-25-chloro-17-(1H-indol-3-ylmethyl)-16-methyl-12,15,18-trioxo-23-phenyl-2-thia-4,10,13,16,19-pentaaza-tricyclo[19.4.0.0*3,8*]pentacosa-1(25),3(8),4,6,21,23-hexaen-11-yl]-propionamide]
13 | 0.5 (≈ 0.685 µM) | CN1C(=O)[C@H](CCCCN)NC(=O)[C@H](CCCN)NCc2cccnc2Sc2c(Cl)cc(C#N)cc2CNC(=O)[C@@H]1Cc1c[nH]c2ccccc12 [Example 185, (11S,14S,17S)-14-(4-Amino-butyl)-11-(3-amino-propyl)-25-chloro-17-(1H-indol-3-ylmethyl)-16-methyl-12,15,18-trioxo-2-thia-4,10,13,16,19-pentaaza-tricyclo[19.4.0.0*3,8*]pentacosa-1(25),3(8),4,6,21,23-hexaene-23-carbonitrile]
14 | 0.5 (≈ 0.625 µM) | Cc1noc(C)c1-c1cc(Cl)c2c(c1)CNC(=O)[C@H](Cc1c[nH]c3ccccc13)N(C)C(=O)[C@H](CCCCN)NC(=O)[C@H](CCCN)NCc1cccnc1S2 [Example 186, (11S,14S,17S)-14-(4-Amino-butyl)-11-(3-amino-propyl)-25-chloro-23-(3,5-dimethyl-isoxazol-4-yl)-17-(1H-indol-3-ylmethyl)-16-methyl-2-thia-4,10,13,16,19-pentaaza-tricyclo[19.4.0.0*3,8*]pentacosa-1(25),3(8),4,6,21,23-hexaene-12,15,18-trione]
15 | 2 (≈ 2.49 µM) | CN1C(=O)[C@H](CCCCN)NC(=O)[C@H](CCCN)NCc2cccnc2Sc2c(Cl)cc(N3CC4CC3CO4)cc2CNC(=O)[C@@H]1Cc1c[nH]c2ccccc12 (stereo partly drawn) [Example 187, (11S,14S,17S)-14-(4-Amino-butyl)-11-(3-amino-propyl)-25-chloro-17-(1H-indol-3-ylmethyl)-16-methyl-23-(2-oxa-5-aza-bicyclo[2.2.1]hept-5-yl)-2-thia-4,10,13,16,19-pentaaza-tricyclo[19.4.0.0*3,8*]pentacosa-1(25),3(8),4,6,21,23-hexaene-12,15,18-trione]
16 | 2 (≈ 2.35 µM) | CN1C(=O)[C@H](CCCCN)NC(=O)[C@H](CCCN)NCc2cccnc2Sc2c(Cl)cc(C#CCOCc3ccccc3)cc2CNC(=O)[C@@H]1Cc1c[nH]c2ccccc12 [Example 188, (11S,14S,17S)-14-(4-Amino-butyl)-11-(3-amino-propyl)-23-(3-benzyloxy-prop-1-ynyl)-25-chloro-17-(1H-indol-3-ylmethyl)-16-methyl-2-thia-4,10,13,16,19-pentaaza-tricyclo[19.4.0.0*3,8*]pentacosa-1(25),3(8),4,6,21,23-hexaene-12,15,18-trione]
17 | 4 (≈ 5.12 µM) | CN1C(=O)[C@H](CCCCN)NC(=O)[C@H](CCCN)NCc2ccccc2Sc2c(-c3ccccc3)ncc(Cl)c2CNC(=O)[C@@H]1Cc1c[nH]c2ccccc12 [Example 189]
18 | 0.12 (≈ 0.153 µM) | CN1C(=O)[C@H](CCCCN)NC(=O)[C@H](CCCN)NCc2cccnc2Sc2c(Cl)ccc(-c3ccncc3)c2CNC(=O)[C@@H]1Cc1c[nH]c2ccccc12 [Example 190, (11S,14S,17S)-14-(4-Amino-butyl)-11-(3-amino-propyl)-25-chloro-17-(1H-indol-3-ylmethyl)-16-methyl-22-pyridin-4-yl-2-thia-4,10,13,16,19-pentaaza-tricyclo[19.4.0.0*3,8*]pentacosa-1(21),3,5,7,22,24-hexaene-12,15,18-trione]
19 | 0.12 (≈ 0.153 µM) | CN1C(=O)[C@H](CCCCN)NC(=O)[C@H](CCCN)NCc2cccnc2Sc2c(Cl)ccc(-c3cccnc3)c2CNC(=O)[C@@H]1Cc1c[nH]c2ccccc12 [Example 191, (11S,14S,17S)-14-(4-Amino-butyl)-11-(3-amino-propyl)-25-chloro-17-(1H-indol-3-ylmethyl)-16-methyl-22-pyridin-3-yl-2-thia-4,10,13,16,19-pentaaza-tricyclo[19.4.0.0*3,8*]pentacosa-1(25),3(8),4,6,21,23-hexaene-12,15,18-trione]
20 | 64 (≈ 84.7 µM) | CN1C(=O)[C@H](CCCCN)NC(=O)[C@H](CCCN)NCc2ccccc2Sc2nc(N3CCOCC3)ccc2CNC(=O)[C@@H]1Cc1c[nH]c2ccccc12 [Example 192]
